Converted amounts (≈) assume the structure as drawn. Like-named read-outs stand apart in the source and are kept apart here.
Tests used:
[1] = tested on: M. tuberculosis H37Rv ATCC 27294; assay: In vitro growth inhibition assay, BACTEC 460 TB system; format: cell-based, Mycobacterium tuberculosis; parameters: key: +: If ΔGI of test vial is less than that of the control vial the culture was sensitive to the test compound; conditions: final concentration 6.25 μg/ml
M. tuberculosis 27294 = assay: In vitro agar dilution assay (MIC), reference strain; format: cell-based, Mycobacterium tuberculosis
[2] = tested on: M. tuberculosis clinical isolates, sensitive; assay: microbe, parasite or virus in culture; format: cell-based, Mycobacterium tuberculosis; conditions: for MIC: Mycobacterium tuberculosis
M. fortuitum = assay: In vitro agar dilution assay (MIC), M. fortuitum; format: cell-based, Mycobacterium fortuitum; conditions: Mycolicibacterium fortuitum, read-out: MIC (μg/ml) M. fortuitum (n = 8)
M. kansasii = assay: In vitro agar dilution assay (MIC), M. kansasii; format: cell-based; conditions: Mycobacterium kansasii, read-out: MIC (μg/ml) M. kansasii (n = 2)
[3] = tested on: M. tuberculosis strain 103471; conditions: literature values; cited from earlier work
[4] = mice, oral route; cited from earlier work
[5] = tested on: M. tuberculosis H37Rv ATCC 27294; assay: Murine model of pulmonary tuberculosis, treated 01 day post-infection; conditions: for Mean Log10 No. of CFU Lung / Mean Log10 No. of CFU Spleen: 5 day/week for 4 week; for Mean Log10 no. of reduction Lung / Mean Log10 no. of reduction Spleen / Mean Log10 No. of reduction Lung / Mean Log10 No. of reduction Spleen: difference from early controls
[6] = tested on: M. tuberculosis H37Rv ATCC 27294; assay: Murine model of pulmonary tuberculosis, treated 14 days post-infection; conditions: Table IV; for Mean Log10 No. of CFU Lung / Mean Log10 No. of CFU Spleen: 5 day/week for 4 week, treated 14 days post-infection; for Mean Log10 no. of reduction Lung / Mean Log10 no. of reduction Spleen: difference from early controls
[7] = Acute toxicity study in mice; format: in vivo, Swiss albino mice; conditions: single oral dose, mice, observed for 14 days
Method: Compound No. 3 of formula (I) was administered, as a single oral dose, in Swiss albino mice. Two dose levels of 500 and 2000 mg/kg were employed. […] Therefore LD0 was >2000 mg/kg by oral route in mice. […] Similarly in compound No. 12 of Formula I, LD0 was >500 mg/kg by oral route in mice.

[8] = Table III, 12.5 mg/kg gavage, treatment from 1 day after infection
[9] = Table III, 25 mg/kg gavage, treatment from 1 day after infection
[10] = Table III, 50 mg/kg gavage, treatment from 1 day after infection
[11] = Table VI, 12.5 mg/kg, treated 01 day post-infection
[12] = Table VI, 25 mg/kg, treated 01 day post-infection
[13] = Table VI, 50 mg/kg, treated 01 day post-infection

SMILES: NNC(=O)c1ccncc1 [Isoniazid, reference compound]
- Growth inhibition of M. tuberculosis 27294 [1]: +
- MIC (M. tuberculosis 27294; Mycobacterium tuberculosis, 27294, Table I, read-out: MIC (μg/ml) against M. tuberculosis-27294): 0.25 µg/mL (≈ 1.82 µM)
- MIC ([2]; read-out: MIC (μg/ml) M. tuberculosis Sensitive (n = 17)): 0.25 µg/mL (≈ 1.82 µM)
- MIC ([2]; read-out: MIC (μg/ml) against Clinical isolates Sensitive): 0.125 to 0.25 µg/mL (≈ 0.911 to 1.82 µM)
- MIC (M. fortuitum): > 16 µg/mL
- MIC (M. kansasii): > 16 µg/mL
- MIC value (μg/ml) against the M. tuberculosis strain 103471 [3]: 0.25 µg/mL (≈ 1.82 µM)
- Reported LD50 [4]: 139 mg/kg
- Mean Log10 No. of CFU Lung [5, 8]: 2.93
- Mean Log10 No. of CFU Spleen [5, 8]: 2.91
- Mean Log10 no. of reduction Lung ([5]; Table III, 12.5 mg/kg): 1.55
- Mean Log10 no. of reduction Spleen ([5]; Table III, 12.5 mg/kg): 1.72
- Mean Log10 No. of CFU Lung [5, 9]: 2.16
- Mean Log10 No. of CFU Spleen [5, 9]: 2.21
- Mean Log10 no. of reduction Lung ([5]; Table III, 25 mg/kg): 2.36
- Mean Log10 no. of reduction Spleen ([5]; Table III, 25 mg/kg): 2.27
- Mean Log10 No. of CFU Lung [5, 10]: 1.95
- Mean Log10 No. of CFU Spleen [5, 10]: 2.12
- Mean Log10 no. of reduction Lung ([5]; Table III, 50 mg/kg): 2.53
- Mean Log10 no. of reduction Spleen ([5]; Table III, 50 mg/kg): 2.51
- Mean Log10 No. of CFU Lung [5, 11]: 2.89 ± 0.27
- Mean Log10 No. of CFU Spleen [5, 11]: 2.91 ± 0.42
- Mean Log10 No. of reduction Lung ([5]; Table VI, 12.5 mg/kg): 1.68
- Mean Log10 No. of reduction Spleen ([5]; Table VI, 12.5 mg/kg): 1.78
- Mean Log10 No. of CFU Lung [5, 12]: 2.23 ± 0.33
- Mean Log10 No. of CFU Spleen [5, 12]: 2.21 ± 0.44
- Mean Log10 No. of reduction Lung ([5]; Table VI, 25 mg/kg): 2.34
- Mean Log10 No. of reduction Spleen ([5]; Table VI, 25 mg/kg): 2.48
- Mean Log10 No. of CFU Lung [5, 13]: 2.02 ± 0.31
- Mean Log10 No. of CFU Spleen [5, 13]: 2.07 ± 0.33
- Mean Log10 No. of reduction Lung ([5]; Table VI, 50 mg/kg): 2.55
- Mean Log10 No. of reduction Spleen ([5]; Table VI, 50 mg/kg): 2.62
- Mean Log10 No. of CFU Lung ([6]; 12.5 mg/kg): 4.56 ± 0.24
- Mean Log10 No. of CFU Spleen ([6]; 12.5 mg/kg): 4.93 ± 0.42
- Mean Log10 no. of reduction Lung ([6]; 12.5 mg/kg): 1.03
- Mean Log10 no. of reduction Spleen ([6]; 12.5 mg/kg): 1.02
- Mean Log10 No. of CFU Lung ([6]; 25 mg/kg): 3.19 ± 0.6
- Mean Log10 No. of CFU Spleen ([6]; 25 mg/kg): 3.08 ± 0.44
- Mean Log10 no. of reduction Lung ([6]; 25 mg/kg): 2.4
- Mean Log10 no. of reduction Spleen ([6]; 25 mg/kg): 2.87
- Mean Log10 No. of CFU Lung ([6]; 50 mg/kg): 2.97 ± 0.46
- Mean Log10 No. of CFU Spleen ([6]; 50 mg/kg): 2.89 ± 0.27
- Mean Log10 no. of reduction Lung ([6]; 50 mg/kg): 2.62
- Mean Log10 no. of reduction Spleen ([6]; 50 mg/kg): 3.06

SMILES: Cc1c(CN2CCN(C)CC2)cc(-c2ccc(Cl)cc2)n1-c1ccc(Cl)cc1 [BM 212]
- MIC value (μg/ml) against the M. tuberculosis strain 103471 [3]: 0.70 µg/mL (≈ 1.69 µM)

SMILES: Cc1c(CN2CCN(c3cccc(C(F)(F)F)c3)CC2)cc(-c2ccccc2)n1NC(=O)c1ccncc1 [Compound No. 12, N-(3-{[4-(3-trifluoromethylphenyl)piperazinyl]methyl}-2-methyl-5-phenylpyrrolyl)-4-pyridylcarboxamide]
- Growth inhibition of M. tuberculosis 27294 [1]: +
- MIC (μg/ml) against M. tuberculosis-27294 (M. tuberculosis 27294; Table I): 0.25 µg/mL (≈ 0.481 µM)
- MIC (μg/ml) against Clinical isolates Sensitive ([2]; Table I, agar dilution): 0.25 to 0.5 µg/mL
- LD0 [7]: > 500 mg/kg
- Mean Log10 No. of CFU Lung [5, 11]: 2.34 ± 0.18
- Mean Log10 No. of CFU Spleen [5, 11]: 2.26 ± 0.21
- Mean Log10 No. of reduction Lung ([5]; Table VI, 12.5 mg/kg): 2.23
- Mean Log10 No. of reduction Spleen ([5]; Table VI, 12.5 mg/kg): 2.43
- Mean Log10 No. of CFU Lung [5, 12]: 2.1 ± 0.24
- Mean Log10 No. of CFU Spleen [5, 12]: 2.13 ± 0.28
- Mean Log10 No. of reduction Lung ([5]; Table VI, 25 mg/kg): 2.47
- Mean Log10 No. of reduction Spleen ([5]; Table VI, 25 mg/kg): 2.56
- Mean Log10 No. of CFU Lung [5, 13]: 1.89 ± 0.24
- Mean Log10 No. of CFU Spleen [5, 13]: 1.94 ± 0.23
- Mean Log10 No. of reduction Lung ([5]; Table VI, 50 mg/kg): 2.68
- Mean Log10 No. of reduction Spleen ([5]; Table VI, 50 mg/kg): 2.75
- Mean Log10 No. of CFU Lung ([6]; 12.5 mg/kg): 4.18 ± 0.38
- Mean Log10 No. of CFU Spleen ([6]; 12.5 mg/kg): 4.41 ± 0.26
- Mean Log10 no. of reduction Lung ([6]; 12.5 mg/kg): 1.41
- Mean Log10 no. of reduction Spleen ([6]; 12.5 mg/kg): 1.54
- Mean Log10 No. of CFU Lung ([6]; 25 mg/kg): 2.87 ± 0.15
- Mean Log10 No. of CFU Spleen ([6]; 25 mg/kg): 2.83 ± 0.29
- Mean Log10 no. of reduction Lung ([6]; 25 mg/kg): 2.72
- Mean Log10 no. of reduction Spleen ([6]; 25 mg/kg): 3.12
- Mean Log10 No. of CFU Lung ([6]; 50 mg/kg): 2.74 ± 0.36
- Mean Log10 No. of CFU Spleen ([6]; 50 mg/kg): 2.78 ± 0.32
- Mean Log10 no. of reduction Lung ([6]; 50 mg/kg): 2.85
- Mean Log10 no. of reduction Spleen ([6]; 50 mg/kg): 3.17

— patent US7763602B2, “Pyrrole derivatives as antimycobacterial compounds” (priority 2002, dated 2010)
